Reference: ChEMBL document CHEMBL1201862, “PubChem BioAssay data set” (2004)
Activity calls are given as the source filed them.

Experiments:
[1] = target: T1, Long-chain-fatty-acid--AMP ligase FadD28 (Mycobacterium tuberculosis, UniProt P9WQ59); assay: Fluorescence polarization aasay to screen for inhibitors that compete for the binding of FadD28 to a bisubstrate Measured in Biochemical System Using Plate Reader - 2147-01_Inhibitor_Dose_CherryPick_Activity.; type: functional, Mycobacterium tuberculosis H37Rv
T1 sequence (P9WQ59 whole entry): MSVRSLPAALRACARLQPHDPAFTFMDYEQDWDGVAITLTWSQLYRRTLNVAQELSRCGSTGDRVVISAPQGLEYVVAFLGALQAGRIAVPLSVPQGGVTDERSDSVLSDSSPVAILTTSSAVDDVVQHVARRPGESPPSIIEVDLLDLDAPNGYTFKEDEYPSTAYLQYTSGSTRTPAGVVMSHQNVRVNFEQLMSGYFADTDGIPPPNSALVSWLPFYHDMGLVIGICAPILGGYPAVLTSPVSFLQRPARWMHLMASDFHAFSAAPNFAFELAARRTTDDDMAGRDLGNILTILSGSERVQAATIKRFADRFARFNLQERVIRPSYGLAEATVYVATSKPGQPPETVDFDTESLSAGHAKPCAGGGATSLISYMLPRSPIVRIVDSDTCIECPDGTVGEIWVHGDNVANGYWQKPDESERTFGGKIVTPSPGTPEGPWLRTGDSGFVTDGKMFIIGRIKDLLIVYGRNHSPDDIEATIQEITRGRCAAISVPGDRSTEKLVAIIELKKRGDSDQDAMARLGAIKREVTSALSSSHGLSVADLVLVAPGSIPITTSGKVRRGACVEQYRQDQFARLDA

[2] = target: T2, Small ubiquitin-related modifier 1 (Homo sapiens, UniProt P63165); assay: SUMO1 protein interaction blockers, potency – biochemical, fluorescence polarization, uHTS hits, dose response (AID 624382); type: functional; conditions: read-out: IC50_Mean
T2 sequence (P63165 whole entry): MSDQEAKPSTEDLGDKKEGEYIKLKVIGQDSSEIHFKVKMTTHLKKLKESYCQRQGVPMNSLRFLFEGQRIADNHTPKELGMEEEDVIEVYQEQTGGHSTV

Troponin, cardiac muscle = Troponin, cardiac muscle (Homo sapiens, UniProt P19429+P45379+P63316); assay: compounds desensitizing RTF to calcium – biochemical, fluorescence, cardiac regulated thin filaments, triplicate IC50, dose response (AID 504742); type: protein-complex assay
[3] = target: T2, Small ubiquitin-related modifier 1; assay: SUMO1 protein-protein binding blockers, potency – biochemical, FRET, dose response (AID 624383); type: functional; conditions: read-out: IC50_Mean
[4] = target: T3, Rac GTPase-activating protein 1 (Homo sapiens, UniProt Q9H0H5); assay: blockers of MgcRacGAP-driven Rac1 GTP hydrolysis – biochemical, ADP Hunter fluorescence, primary and confirmatory, confirmation (AID 624330); type: functional
T3 sequence (Q9H0H5 whole entry): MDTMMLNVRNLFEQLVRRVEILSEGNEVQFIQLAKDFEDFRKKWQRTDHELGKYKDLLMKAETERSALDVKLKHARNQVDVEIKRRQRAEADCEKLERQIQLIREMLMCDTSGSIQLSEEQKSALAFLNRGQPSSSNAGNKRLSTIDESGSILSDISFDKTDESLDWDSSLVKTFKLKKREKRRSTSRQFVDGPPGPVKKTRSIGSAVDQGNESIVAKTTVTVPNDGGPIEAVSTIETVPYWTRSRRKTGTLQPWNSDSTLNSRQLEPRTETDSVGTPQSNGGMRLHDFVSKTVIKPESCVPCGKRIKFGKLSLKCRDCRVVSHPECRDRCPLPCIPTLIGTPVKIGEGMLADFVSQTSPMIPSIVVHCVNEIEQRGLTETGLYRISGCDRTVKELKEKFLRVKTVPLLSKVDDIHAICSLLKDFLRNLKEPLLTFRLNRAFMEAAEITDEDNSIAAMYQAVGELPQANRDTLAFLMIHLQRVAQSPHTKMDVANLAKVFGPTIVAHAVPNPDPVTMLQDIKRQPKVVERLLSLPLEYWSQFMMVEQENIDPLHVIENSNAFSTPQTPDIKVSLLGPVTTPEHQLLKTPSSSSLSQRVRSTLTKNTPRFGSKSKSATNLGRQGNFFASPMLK

[5] = target: T4, Low molecular weight phosphotyrosine protein phosphatase (Homo sapiens, UniProt P24666); type: functional; conditions: read-out: IC50_Mean
T4 sequence (P24666 whole entry): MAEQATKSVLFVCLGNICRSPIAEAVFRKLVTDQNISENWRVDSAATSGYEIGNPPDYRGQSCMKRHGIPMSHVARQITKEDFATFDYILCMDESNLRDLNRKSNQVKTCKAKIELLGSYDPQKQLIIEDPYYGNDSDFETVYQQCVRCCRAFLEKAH

[6] = target: T4, Low molecular weight phosphotyrosine protein phosphatase; type: functional; conditions: read-out: IC50_Mean; remark: listed apart in the source
[7] = target: T5, Serine/threonine-protein phosphatase (Candida dubliniensis (strain CD36 / CBS 7987 / NCPF 3949 / NRRLY-17841) (Yeast), UniProt B9W6M3); assay: blockers of CaCl2-induced CDRE-lacZ signaling – S. cerevisiae, luminescence, secondary, dose response (AID 2388); type: functional, cell-based;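 also: yeast reporter cells carrying a calcineurin-responsive lacZ construct stimulated with calcium chloride; luminescent beta-galactosidase reporter signal in whole cells rather than isolated phosphatase activity; potency for inhibition where a drop in reporter signal means calcineurin blockade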
T5 sequence (B9W6M3 whole entry): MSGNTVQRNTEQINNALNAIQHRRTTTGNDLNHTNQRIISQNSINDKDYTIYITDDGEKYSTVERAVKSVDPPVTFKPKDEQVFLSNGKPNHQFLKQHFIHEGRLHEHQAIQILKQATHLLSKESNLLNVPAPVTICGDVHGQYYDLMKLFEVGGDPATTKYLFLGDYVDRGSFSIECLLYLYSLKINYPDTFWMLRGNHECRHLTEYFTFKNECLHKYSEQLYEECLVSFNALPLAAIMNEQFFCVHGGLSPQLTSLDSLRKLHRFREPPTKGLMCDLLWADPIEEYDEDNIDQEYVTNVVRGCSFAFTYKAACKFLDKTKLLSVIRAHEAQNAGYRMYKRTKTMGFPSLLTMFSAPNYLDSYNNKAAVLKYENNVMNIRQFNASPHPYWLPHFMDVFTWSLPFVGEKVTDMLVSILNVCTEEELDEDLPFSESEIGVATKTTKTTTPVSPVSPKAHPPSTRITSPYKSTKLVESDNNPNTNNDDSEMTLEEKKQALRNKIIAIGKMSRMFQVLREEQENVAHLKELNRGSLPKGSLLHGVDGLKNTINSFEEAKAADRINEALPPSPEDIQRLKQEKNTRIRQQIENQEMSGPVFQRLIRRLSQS

[8] = fluconazole-exposed Candida albicans growth modulators – fluorescence, retest, confirmation (AID 2467); type: functional, cell-based
[9] = NIH-3T3 fibroblast cytotoxicity, dose response, cytotoxicity control, cell-based, fluorescence, Alamar Blue, secondary assay (AID 2327); type: functional;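 also: NIH-3T3 mouse fibroblasts cultured with fluconazole at 8 µg/mL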
[10] = target: ATP-dependent molecular chaperone HSP82 (Candida albicans (strain WO-1) (Yeast), UniProt C4YTQ8); assay: steroid-induced GRE reporter decrease in yeast – S. cerevisiae, luminescence, Hsp90 inhibitor project, dose response (AID 2400); type: functional, cell-based;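 also: beta-galactosidase luminescence from glucocorticoid response element reporter as proxy for Hsp90 function; inhibitor potency where signal loss means Hsp90 inhibition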
Sequence of ATP-dependent molecular chaperone HSP82 (C4YTQ8 whole entry): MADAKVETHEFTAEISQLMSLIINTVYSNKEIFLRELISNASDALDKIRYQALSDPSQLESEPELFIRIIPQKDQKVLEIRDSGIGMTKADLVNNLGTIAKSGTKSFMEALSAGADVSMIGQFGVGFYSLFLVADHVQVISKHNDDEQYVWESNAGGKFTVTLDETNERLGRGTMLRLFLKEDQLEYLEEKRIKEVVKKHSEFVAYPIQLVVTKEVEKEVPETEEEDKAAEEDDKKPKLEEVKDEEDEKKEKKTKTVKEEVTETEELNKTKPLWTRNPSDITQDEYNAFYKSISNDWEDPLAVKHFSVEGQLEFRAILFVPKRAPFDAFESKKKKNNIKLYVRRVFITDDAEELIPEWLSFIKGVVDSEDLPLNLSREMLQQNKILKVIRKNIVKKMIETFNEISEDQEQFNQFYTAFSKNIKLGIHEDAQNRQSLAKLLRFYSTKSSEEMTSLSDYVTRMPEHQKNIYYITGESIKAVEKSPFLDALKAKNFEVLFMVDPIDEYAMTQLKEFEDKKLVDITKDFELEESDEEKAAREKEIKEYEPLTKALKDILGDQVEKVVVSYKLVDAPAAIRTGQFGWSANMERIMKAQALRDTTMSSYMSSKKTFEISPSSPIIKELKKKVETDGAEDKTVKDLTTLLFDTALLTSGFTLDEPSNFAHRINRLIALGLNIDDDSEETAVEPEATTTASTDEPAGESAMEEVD

[11] = blockers of bursicon-stimulated LGR2 cAMP reporter – cell-based, HEK293, CRE-luciferase reporter, cherry pick, set 2, dose response (AID 743343); type: functional;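 also: transfected cells were stimulated with diluted bursicon conditioned medium after compound addition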
[12] = blockade of melanocortin 4 receptor signaling – cell-based, plate reader, cherry pick, counter-screen for LGR2 antagonist project, dose response (AID 743444); type: functional;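 also: transfected HEK 293 cells stimulated with alpha-MSH peptide; potency of inhibitors of the alpha-MSH evoked signal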
[13] = A549 cell cytotoxicity, dose response, cytotoxicity control, plate reader, cherry-pick, antagonist series (AID 743412); type: functional, cell-based
[14] = toxicity toward HepG2 liver cells – cell-based, plate reader, cherry-pick, antagonist series, cytotoxicity control, dose response (AID 743416); type: functional
[15] = reduced cellular PGC1a acetyl-lysine signal – cell-based, cherry-picked samples, dose response (AID 720514); type: functional;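 also: potency may reflect raised or lowered acetylation signal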
[16] = target: Ras and Rab interactor 1/Tyrosine-protein kinase ABL1 (Homo sapiens, UniProt P00519+Q13671); type: functional;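 also: biochemical TR-FRET dose-response test measuring inhibition of binding between Rin1 and Abl proteins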
Sequence of Ras and Rab interactor 1/Tyrosine-protein kinase ABL1 (P00519 whole entry): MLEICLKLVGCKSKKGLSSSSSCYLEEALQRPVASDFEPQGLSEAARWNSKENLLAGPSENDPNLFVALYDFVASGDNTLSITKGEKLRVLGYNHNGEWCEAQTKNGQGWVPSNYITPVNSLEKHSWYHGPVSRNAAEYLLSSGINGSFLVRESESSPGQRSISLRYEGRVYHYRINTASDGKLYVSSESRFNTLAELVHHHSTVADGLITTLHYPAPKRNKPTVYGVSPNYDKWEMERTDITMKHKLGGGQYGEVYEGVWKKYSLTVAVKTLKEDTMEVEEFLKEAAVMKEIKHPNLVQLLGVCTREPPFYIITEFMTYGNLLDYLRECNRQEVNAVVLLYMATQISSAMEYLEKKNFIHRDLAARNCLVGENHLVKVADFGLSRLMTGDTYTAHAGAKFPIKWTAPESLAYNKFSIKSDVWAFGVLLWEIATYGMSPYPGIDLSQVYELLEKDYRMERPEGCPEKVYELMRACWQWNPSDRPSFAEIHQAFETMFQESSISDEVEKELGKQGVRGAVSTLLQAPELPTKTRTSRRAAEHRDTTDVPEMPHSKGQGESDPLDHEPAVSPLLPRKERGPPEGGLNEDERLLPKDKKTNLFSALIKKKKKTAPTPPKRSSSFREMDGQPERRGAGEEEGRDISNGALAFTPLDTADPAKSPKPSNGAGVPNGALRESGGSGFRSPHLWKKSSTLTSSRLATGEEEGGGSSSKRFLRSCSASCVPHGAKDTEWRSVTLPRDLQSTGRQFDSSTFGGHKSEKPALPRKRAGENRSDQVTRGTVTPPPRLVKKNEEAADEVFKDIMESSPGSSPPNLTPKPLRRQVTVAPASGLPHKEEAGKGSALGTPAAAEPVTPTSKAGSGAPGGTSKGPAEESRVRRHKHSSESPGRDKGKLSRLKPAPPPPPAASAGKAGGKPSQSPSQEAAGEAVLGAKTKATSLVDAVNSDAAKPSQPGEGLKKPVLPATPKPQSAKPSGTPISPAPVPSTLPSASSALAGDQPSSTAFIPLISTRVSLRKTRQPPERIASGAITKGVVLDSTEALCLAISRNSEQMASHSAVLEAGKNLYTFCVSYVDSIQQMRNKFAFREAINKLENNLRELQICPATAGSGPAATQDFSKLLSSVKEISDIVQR
Sequence of Ras and Rab interactor 1/Tyrosine-protein kinase ABL1 (Q13671 whole entry): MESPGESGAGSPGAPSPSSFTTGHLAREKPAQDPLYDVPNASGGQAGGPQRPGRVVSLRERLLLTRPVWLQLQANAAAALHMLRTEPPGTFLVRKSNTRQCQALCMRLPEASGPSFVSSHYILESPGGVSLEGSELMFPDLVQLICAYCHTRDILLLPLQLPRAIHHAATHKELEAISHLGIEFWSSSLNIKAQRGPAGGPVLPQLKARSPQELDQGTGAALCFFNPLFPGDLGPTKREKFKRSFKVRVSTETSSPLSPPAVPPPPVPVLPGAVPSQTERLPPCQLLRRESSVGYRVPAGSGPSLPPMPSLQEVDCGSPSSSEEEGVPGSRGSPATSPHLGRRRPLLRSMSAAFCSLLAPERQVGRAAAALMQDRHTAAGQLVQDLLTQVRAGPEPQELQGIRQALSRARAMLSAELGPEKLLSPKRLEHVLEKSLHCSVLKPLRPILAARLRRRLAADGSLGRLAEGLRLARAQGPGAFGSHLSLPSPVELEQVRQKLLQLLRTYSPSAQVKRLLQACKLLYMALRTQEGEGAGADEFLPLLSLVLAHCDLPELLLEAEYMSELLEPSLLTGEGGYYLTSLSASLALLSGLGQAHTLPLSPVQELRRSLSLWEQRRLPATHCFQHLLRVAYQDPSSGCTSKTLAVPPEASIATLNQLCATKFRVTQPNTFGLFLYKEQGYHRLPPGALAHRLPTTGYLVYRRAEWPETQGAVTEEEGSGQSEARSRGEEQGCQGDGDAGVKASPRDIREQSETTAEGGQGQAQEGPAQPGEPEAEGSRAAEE

[17] = target: T6, Corticotropin-releasing factor receptor 2/Corticotropin-releasing factor-binding protein (Homo sapiens, UniProt P24387+Q13324); assay: Dose Response confirmation of uHTS hits for small molecule antagonists of the CRF-binding protein and CRF-R2 receptor complex.; type: functional; conditions: read-out: IC50_Mean
T6 sequence (Q13324 whole entry): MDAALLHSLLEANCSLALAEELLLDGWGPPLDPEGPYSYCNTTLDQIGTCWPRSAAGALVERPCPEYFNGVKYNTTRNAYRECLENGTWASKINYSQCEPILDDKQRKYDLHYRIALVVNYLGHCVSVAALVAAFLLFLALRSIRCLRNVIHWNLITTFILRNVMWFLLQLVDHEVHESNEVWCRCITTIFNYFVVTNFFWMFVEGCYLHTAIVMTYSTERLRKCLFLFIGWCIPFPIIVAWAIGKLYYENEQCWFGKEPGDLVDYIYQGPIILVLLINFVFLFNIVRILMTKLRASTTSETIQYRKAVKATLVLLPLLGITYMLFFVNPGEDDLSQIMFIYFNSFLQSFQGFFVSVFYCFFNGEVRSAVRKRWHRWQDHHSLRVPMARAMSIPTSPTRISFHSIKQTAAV
T6 sequence (P24387 whole entry): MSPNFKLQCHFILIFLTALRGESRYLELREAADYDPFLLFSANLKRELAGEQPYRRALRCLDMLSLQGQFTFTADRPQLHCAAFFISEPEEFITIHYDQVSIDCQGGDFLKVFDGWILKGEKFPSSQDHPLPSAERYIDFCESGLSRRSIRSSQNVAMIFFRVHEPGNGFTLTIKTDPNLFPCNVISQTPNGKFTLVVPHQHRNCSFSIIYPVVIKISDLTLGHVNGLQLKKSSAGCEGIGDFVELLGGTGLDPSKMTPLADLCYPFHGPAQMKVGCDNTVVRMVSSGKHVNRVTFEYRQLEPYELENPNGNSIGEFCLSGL

[18] = target: T6, Corticotropin-releasing factor receptor 2/Corticotropin-releasing factor-binding protein; assay: activators of CRF receptor 2 with binding protein – uHTS hits, confirmation (AID 602473); type: functional; conditions: read-out: EC50_Mean
[19] = blockers of CRF-binding protein–CRF-R2 complex – cell-based, uHTS hits, 384-well, dose response (AID 651639); type: functional, Homo sapiens; conditions: read-out: IC50_Mean
[20] = general mammalian cell viability loss – inhibitor set, cherry-pick, set 2, cytotoxicity control for miR-122 modulator project, dose response (AID 720697); type: functional, cell-based
cells = type: functional

O=C(O)c1cc(O)c2c(c1)[C@@H]([C@H]1c3cc(C(=O)O)cc(O)c3C(=O)c3c(O[C@@H]4O[C@H](CO)[C@@H](O)[C@H](O)[C@H]4O)cccc31)c1cccc(OC3O[C@H](CO)[C@@H](O)[C@H](O)[C@H]3O)c1C2=O (stereo partly drawn)
AC50 [1]: > 100 µM (inactive) | IC50 [2]: 30.6 µM (inactive) | IC50 (Troponin, cardiac muscle): 1.82 µM (active) | IC50 [3]: 1.06 µM (active) | IC50 [4]: 12 µM (active)

O=c1cc(-c2cc3ccccc3o2)c2cc(O)ccc2o1
IC50 [5]: 19.7 µM (active) | IC50 [6]: 24.1 µM (inactive)

COCCn1c(=O)[nH]c(=O)c2cc(C(=O)c3cc(Cl)ccc3O)cnc21
EC50 [7]: > 180 µM (inactive) | EC50 [8]: 1.12 µM (active) | EC50 [9]: > 160 µM (inactive) | EC50 [10]: > 160 µM (inactive)

COc1ccc(C(=O)Nc2ccc3ncccc3c2)cc1
AC50 [11]: 5.45 µM (active) | AC50 [12]: 7.29 µM (active) | AC50 [13]: 37.8 µM (active) | AC50 [14]: 47 µM (active)

COc1ccc(Nc2ccnc3ccccc23)cc1
IC50 [5]: 23.4 µM (inactive) | AC50 [15]: 28.3 µM (active) | IC50 [6]: 30.1 µM (inactive)

Cc1c(C(=O)NCCN2CCOCC2)oc2ccc(Br)cc12
IC50 [16]: 1.02 µM (active)

CSc1c(C#N)sc(=S)n1-c1ccc(C)cc1
IC50 [17]: 11.9 µM (active) | EC50 [18]: > 53 µM (inactive) | IC50 [19]: > 20 µM (inactive)

N#CN=C(Nc1cccc(F)c1)SCc1ccccc1F
IC50 [17]: 6.82 µM (active) | EC50 [18]: > 53 µM (inactive) | IC50 [19]: 1.67 µM (active)

O=C(COc1cccc2ccccc12)Nc1nc2ccccc2[nH]1
AC50 [20]: 8.06 µM (active) | IC50 (cells): 6.2 µM (active)

CCCn1nc(C(=O)N(C)CC(=O)Nc2ccc(OCC)c(OCC)c2)c2ccccc2c1=O
IC50 [16]: 10.5 µM (inactive)

Oc1nc2ccccc2n1C1CCN(C(c2ccnc3ccccc23)c2nnnn2-c2ccc3c(c2)OCCO3)CC1 (stereo not drawn)
IC50 [16]: 15.3 µM (inactive)

Nc1nc(=O)[nH]cc1F [FLUCYTOSINE]
EC50 [7]: > 180 µM (inactive) | EC50 [8]: 0.252 µM (active) | EC50 [9]: > 160 µM (inactive) | EC50 [10]: > 160 µM (inactive)
